Reference: publication PMC5514153, “Targeting PTPRZ inhibits stem cell-like properties and tumorigenicity in glioblastoma cells” (Scientific Reports, 2017)
Where two headings read alike, the source gives them in different places.

What was measured:
[1] = Plasma and brain levels after intraperitoneal injection; type: in vivo, C57BL6 mice; conditions: for concentration at 1 h: mouse, ip, C57BL6 mice, 1 h after i.p. 30 mg/kg, two female mice
Excerpt: NAZ2329 successfully suppresses the cell proliferation and cell migration of the differentiated glioblastoma cells, as well as cell sphere formation (Figs 7 to 8). NAZ2329 is the first cell-permeable R5 RPTP inhibitor. […] Nevertheless, NAZ2329 is a potentially valuable lead therapeutic for the development of drugs that function through allosteric inhibitory mechanisms against PTPs, such as PTPRZ and PTPRG.

C6 cells [2] = test: Cell proliferation assay, C6 cells; type: cell-based, rat; conditions: 48 h, 2% FBS
Protocol: Figure 7 Cellular effects of NAZ2329 on the malignant phenotypes of C6 cells. (A) Phosphorylation of paxillin at Tyr-118. C6 cells were incubated with NAZ2329 for the indicated periods. Immunoprecipitated paxillin was analyzed by Western blotting using anti-pY118-paxillin and anti-paxillin. Blots are representative of five independent cultures. […] (B) Cell proliferation assay. C6 cells were incubated for 48 h with NAZ2329 in normal medium containing 2% FBS. […] (C) Boyden chamber assay. Cells were allowed to migrate for 3 h. DAPI-stained nuclei are shown before (total) and after (migrated) the removal of cells remaining in the top chamber. Scale bars, 100 µm. […] (D,E) Sphere formation (D) and SOX2 expression (E). C6 cells were cultured in CSC medium for 7 days with indicated concentrations of NAZ2329. Images are representative of five independent cultures. Scale bars, 100 µm. […] (F) Self-renewal of C6 spheres. C6 spheres were initially developed in CSC medium for 7 days, followed by an incubation with NAZ2329 in CSC medium for 5 days. Images are representative of five independent cultures. Scale bars, 100 µm. […]
Cells (3 × 10^4 cells) were inoculated into a 24-well plastic tissue culture plate with 500 µl of DMEM supplemented with 2% FBS and the indicated compounds for 48 h. Cells were harvested by trypsinization and then manually counted with a hemacytometer.

C6 cells [3] = test: Boyden chamber migration assay, C6 cells; type: cell-based, rat; conditions: 3 h
Protocol: Figure 7 Cellular effects of NAZ2329 on the malignant phenotypes of C6 cells. (A) Phosphorylation of paxillin at Tyr-118. C6 cells were incubated with NAZ2329 for the indicated periods. Immunoprecipitated paxillin was analyzed by Western blotting using anti-pY118-paxillin and anti-paxillin. Blots are representative of five independent cultures. […] (B) Cell proliferation assay. C6 cells were incubated for 48 h with NAZ2329 in normal medium containing 2% FBS. […] (C) Boyden chamber assay. Cells were allowed to migrate for 3 h. DAPI-stained nuclei are shown before (total) and after (migrated) the removal of cells remaining in the top chamber. Scale bars, 100 µm. […] (D,E) Sphere formation (D) and SOX2 expression (E). C6 cells were cultured in CSC medium for 7 days with indicated concentrations of NAZ2329. Images are representative of five independent cultures. Scale bars, 100 µm. […] (F) Self-renewal of C6 spheres. C6 spheres were initially developed in CSC medium for 7 days, followed by an incubation with NAZ2329 in CSC medium for 5 days. Images are representative of five independent cultures. Scale bars, 100 µm. […] Full-length blots and gels are presented in Supplementary Fig. S7.
This assay was performed as described previously. […] Cells were allowed to migrate for 3 h, and the number of cells that migrated to the lower surface was counted under a conventional fluorescence microscope.

With CCOc1ccc(C(F)(F)F)cc1CSc1ccsc1C(=O)NS(=O)(=O)c1ccccc1 [NAZ2329] the BBB permeability ([1]; from plasma and brain levels 1 h after i.p. 30 mg/kg) was “poor BBB permeability”, the concentration at 1 h ([1]; brain, read-out: average level in brain) was 300 ng/g and the concentration at 1 h ([1]; plasma, read-out: average level in plasma) was 22 µg/mL. The cell proliferation (C6 cells [2]) was “inhibited cell proliferation” and the cell migration (C6 cells [3]) was “inhibited”.
